Assay results from PubChem BioAssay AID330 (DTP/NCI, 2004).
Values joined by “and” are separate entries in the source; they are usually repeats but may differ in a detail not shown here. Equal entries are not always repeated. Toxic doses and inconclusive results are not listed. Rule for the calls: active = survival T/C of 150% or more; inactive = T/C below 125% in these data.

Tested on: P388 leukemia ip, CD2F1 mice, survival T/C
Experiment: NCI In Vivo Anticancer Drug Screen. Data for tumor model P388 Leukemia (intraperitoneal) in CD2F1 (CDF1) mice
Conditions: endpoint: median survival time, higher = longer survival
Summary of the method: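 Mice carrying the transplanted tumor received test compound or vehicle. Survival was recorded in each group, and the value is the treated-group measurement divided by that of the vehicle-treated control group.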

[1] = dose: 50.0 mg/kg/injection, schedule: Q01DX005 (ip), vehicle: saline with Tween-80
[2] = dose: 100.0 mg/kg/injection, schedule: Q01DX005 (ip), vehicle: saline with Tween-80
[3] = dose: 200.0 mg/kg/injection, schedule: Q01DX005 (ip), vehicle: saline with Tween-80
[4] = dose: 60.0 mg/kg/injection, schedule: Q01DX005 (ip), vehicle: Klucel (hydroxypropylcellulose) (HPC)
[5] = dose: 120.0 mg/kg/injection, schedule: Q01DX005 (ip), vehicle: Klucel (hydroxypropylcellulose) (HPC)
[6] = dose: 240.0 mg/kg/injection, schedule: Q01DX005 (ip), vehicle: Klucel (hydroxypropylcellulose) (HPC)
[7] = dose: 60.0 mg/kg/injection, schedule: Q01DX005 (ip), vehicle: saline with Tween-80
[8] = dose: 120.0 mg/kg/injection, schedule: Q01DX005 (ip), vehicle: saline with Tween-80
[9] = dose: 240.0 mg/kg/injection, schedule: Q01DX005 (ip), vehicle: saline with Tween-80
[10] = dose: 100.0 mg/kg/injection, schedule: Q01DX009 (ip), vehicle: saline with Tween-80
[11] = dose: 200.0 mg/kg/injection, schedule: Q01DX009 (ip), vehicle: saline with Tween-80
[12] = dose: 50.0 mg/kg/injection, schedule: Q01DX009 (ip), vehicle: saline with Tween-80
[13] = dose: 12.5 mg/kg/injection, schedule: Q01DX009 (ip), vehicle: saline with Tween-80
[14] = dose: 100.0 mg/kg/injection, schedule: Q04DX003 (ip), vehicle: Klucel (hydroxypropylcellulose) (HPC)
[15] = dose: 200.0 mg/kg/injection, schedule: Q04DX003 (ip), vehicle: Klucel (hydroxypropylcellulose) (HPC)

Measured: T/C

O=C(CBr)c1ccc(C(F)(F)F)cc1
inactive: dose: 6.25 mg/kg/injection, schedule: Q01DX009 (ip), vehicle: DMSO 99 % of control | dose: 12.5 mg/kg/injection, schedule: Q01DX009 (ip), vehicle: DMSO 88 % of control

OC1(CN2CCCCC2)CCCOCCCOCCCOCCCOCCCOCCC1
inactive: [1] 94 % of control | [2] 99 % of control | [3] 100 % of control

CCOC1[N-]CC(C)C(OCC)N1.CCOC1[N-]CC(C)C(OCC)N1.[Cl][Pd][Cl] (configuration not stated)
inactive: [4] 102 % of control | [5] 106 % of control | [6] 107 % of control

Cc1n[nH]c(=O)c2[nH]c3ccccc3c12
inactive: [7] 104 % of control | [8] 97 % of control | [9] 96 % of control

C=CCOC(N)=O
inactive: [10] 100 % of control | [11] 101 % of control | dose: 400.0 mg/kg/injection, schedule: Q01DX009 (ip), vehicle: saline with Tween-80 101 % of control

C1CCc2[nH]nc(-c3n[nH]c4c3CCCCC4)c2CC1
inactive: [4] 100 % of control | [5] 94 % of control | [6] 96 % of control

Cc1ccc2c(c1)=N/C(=N/c1[nH]c(O)c3ccccc13)N=2
inactive: [12] 100 % of control and 96 % of control | [10] 99 % of control

Cc1cc(N(C)C)nc2cc(N(C)C)ccc12
inactive: [13] 93 % of control | dose: 25.0 mg/kg/injection, schedule: Q01DX009 (ip), vehicle: saline with Tween-80 103 % of control | [12] 95 % of control and 98 % of control

CC(C)(C)[Si](C)(C)OC[C@@H]1OC=CC(=O)[C@H]1O
inactive: dose: 50.0 mg/kg/injection, schedule: Q01DX005 (ip), vehicle: Klucel (hydroxypropylcellulose) (HPC) 102 % of control | dose: 100.0 mg/kg/injection, schedule: Q01DX005 (ip), vehicle: Klucel (hydroxypropylcellulose) (HPC) 94 % of control | dose: 200.0 mg/kg/injection, schedule: Q01DX005 (ip), vehicle: Klucel (hydroxypropylcellulose) (HPC) 101 % of control

O=C1NC(=O)C23CCCCc4cccc(c42)C(=O)C13 (configuration not stated)
inactive: dose: 25.0 mg/kg/injection, schedule: Q01DX005 (ip), vehicle: water 100 % of control | dose: 50.0 mg/kg/injection, schedule: Q01DX005 (ip), vehicle: water 99 % of control | dose: 100.0 mg/kg/injection, schedule: Q01DX005 (ip), vehicle: water 103 % of control | dose: 200.0 mg/kg/injection, schedule: Q01DX005 (ip), vehicle: water 100 % of control

COc1cc(/C=C/C(=O)c2ccc(OCc3ccccc3)cc2OC(C)=O)c(OC)c(OC)c1OC
inactive: dose: 100.0 mg/kg/injection, schedule: Q01DX001 (ip), vehicle: Klucel (hydroxypropylcellulose) (HPC) 96 % of control | dose: 200.0 mg/kg/injection, schedule: Q01DX001 (ip), vehicle: Klucel (hydroxypropylcellulose) (HPC) 94 % of control

O=C(O)Cc1cc(Cl)ccc1C(=O)O
inactive: [1] 97 % of control | [2] 97 % of control | [3] 97 % of control

NC1=NN(Cc2nnc(-c3ccccc3)s2)C(=O)C1
inactive: [7] 93 % of control | [8] 101 % of control | [9] 111 % of control

FC(F)(F)CO[Te](OCC(F)(F)F)(OCC(F)(F)F)OCC(F)(F)F
inactive: dose: 12.5 mg/kg/injection, schedule: Q01DX001 (ip), vehicle: saline with Tween-80 106 % of control

CCOC(=O)Oc1ccc[nH]c1=O
inactive: dose: 25.0 mg/kg/injection, schedule: Q01DX009 (ip), vehicle: saline 100 % of control and 96 % of control | dose: 25.0 mg/kg/injection, schedule: Q01DX009 (sc), vehicle: saline with Tween-80 100 % of control and 109 % of control | dose: 50.0 mg/kg/injection, schedule: Q01DX009 (ip), vehicle: saline 100 % of control | dose: 50.0 mg/kg/injection, schedule: Q01DX009 (sc), vehicle: saline with Tween-80 108 % of control and 109 % of control | dose: 100.0 mg/kg/injection, schedule: Q01DX009 (ip), vehicle: saline 108 % of control and 109 % of control | dose: 100.0 mg/kg/injection, schedule: Q01DX009 (sc), vehicle: saline with Tween-80 106 % of control and 115 % of control | dose: 200.0 mg/kg/injection, schedule: Q01DX009 (ip), vehicle: saline 111 % of control and 113 % of control | dose: 200.0 mg/kg/injection, schedule: Q01DX009 (sc), vehicle: saline with Tween-80 104 % of control and 116 % of control | dose: 400.0 mg/kg/injection, schedule: Q01DX009 (ip), vehicle: saline 117 % of control and 124 % of control | dose: 400.0 mg/kg/injection, schedule: Q01DX009 (sc), vehicle: saline with Tween-80 101 % of control and 108 % of control | dose: 600.0 mg/kg/injection, schedule: Q01DX009 (sc), vehicle: saline with Tween-80 107 % of control and 112 % of control

Nc1nnnn1NC(=O)c1ccccc1
inactive: [14] 97 % of control | [15] 102 % of control | dose: 400.0 mg/kg/injection, schedule: Q04DX003 (ip), vehicle: Klucel (hydroxypropylcellulose) (HPC) 98 % of control

N#CC1C(=O)NC(=O)C(C#N)C1c1cccc(O)c1 (configuration not stated)
inactive: dose: 50.0 mg/kg/injection, schedule: Q01DX009 (ip), vehicle: Klucel (hydroxypropylcellulose) (HPC) 96 % of control | dose: 100.0 mg/kg/injection, schedule: Q01DX009 (ip), vehicle: Klucel (hydroxypropylcellulose) (HPC) 101 % of control | dose: 200.0 mg/kg/injection, schedule: Q01DX009 (ip), vehicle: Klucel (hydroxypropylcellulose) (HPC) 97 % of control

COC(=O)C(CC=C(C)C)(CC=C(C)C)C(C)=O
inactive: dose: 100.0 mg/kg/injection, schedule: Q04DX002 (ip), vehicle: saline 104 % of control | dose: 200.0 mg/kg/injection, schedule: Q04DX002 (ip), vehicle: saline 100 % of control | dose: 400.0 mg/kg/injection, schedule: Q04DX002 (ip), vehicle: saline 113 % of control

O=C(OCC1CC=CCC1CCl)c1ccccc1 (configuration not stated)
inactive: [12] 96 % of control | [10] 99 % of control | [11] 99 % of control

N#CC1(OC2OC(CO)C(O)C(O)C2O)C=CC(O)C1 (configuration not stated)
inactive: dose: 25.0 mg/kg/injection, schedule: Q01DX005 (ip), vehicle: saline 91 % of control | dose: 50.0 mg/kg/injection, schedule: Q01DX005 (ip), vehicle: saline 94 % of control | dose: 100.0 mg/kg/injection, schedule: Q01DX005 (ip), vehicle: saline 106 % of control

COC(=O)CC1(C(=O)OC)c2ccc3ccccc3c2N(C#N)C1CCCBr (configuration not stated)
inactive: dose: 100.0 mg/kg/injection, schedule: Q01DX001 (ip), vehicle: saline 109 % of control | dose: 200.0 mg/kg/injection, schedule: Q01DX001 (ip), vehicle: saline 107 % of control | dose: 400.0 mg/kg/injection, schedule: Q01DX001 (ip), vehicle: saline 100 % of control

Cc1ccc(S(=O)(=O)C(=S)Sc2ccccc2)cc1
inactive: dose: 3.12 mg/kg/injection, schedule: Q01DX009 (ip), vehicle: saline with Tween-80 104 % of control | dose: 6.25 mg/kg/injection, schedule: Q01DX009 (ip), vehicle: saline with Tween-80 105 % of control | dose: 12.5 mg/kg/injection, schedule: Q01DX009 (ip), vehicle: alcohol 104 % of control | [13] 109 % of control | dose: 25.0 mg/kg/injection, schedule: Q01DX009 (ip), vehicle: alcohol 107 % of control | dose: 50.0 mg/kg/injection, schedule: Q01DX009 (ip), vehicle: alcohol 107 % of control | [12] 123 % of control

CN1C=C(c2ccccc2)C=C(c2ccccc2)C1S(=O)(=O)O (configuration not stated)
inactive: dose: 12.5 mg/kg/injection, schedule: Q01DX005 (ip), vehicle: saline + Tween-80 + alcohol 99 % of control | dose: 25.0 mg/kg/injection, schedule: Q01DX005 (ip), vehicle: saline + Tween-80 + alcohol 96 % of control

CCCCC(CC)CN(CC(CC)CCCC)C(=O)C(C)O (configuration not stated)
inactive: [1] 105 % of control | [2] 103 % of control | [3] 108 % of control

CC(C)(C)C1CCC=CC(=O)C1 (configuration not stated)
inactive: [14] 105 % of control | [15] 113 % of control

CSCC(NP1(=O)SC(NN=C2CCCCC2)=NC1(C)C)C(=O)O (configuration not stated)
inactive: [7] 100 % of control | [8] 100 % of control | [9] 100 % of control

CCn1c(C)cc(=NC(=O)c2ccccc2O)n1-c1ccccc1
inactive: dose: 100.0 mg/kg/injection, schedule: Q01DX001 (ip), vehicle: saline with Tween-80 103 % of control | dose: 200.0 mg/kg/injection, schedule: Q01DX001 (ip), vehicle: saline with Tween-80 106 % of control | dose: 400.0 mg/kg/injection, schedule: Q01DX001 (ip), vehicle: saline with Tween-80 102 % of control
